Measurements: patent US6803233B2, “Model for Alzheimer's disease and other neurodegenerative diseases” (priority 2000, dated 2004)
“Also recorded” adds a separate entry of the source.

Experiments:
tau = experiment: Immunoblot of tau (tau-1, AT8) in cultured rat hippocampal slices; assay type: cell-based; conditions: rat hippocampal slices; 6 days
Method: Immunoblotting was carried out by using anti-non phosphorylated tau antibody, tau-1 or anti-phosphorylated tau antibody, AT8.
(§1) Cultures of hippocampal slices were prepared from 10-12 days old rats.

MAPK (ERK1/2) = experiment: Immunoblot with anti-active MAPK in cultured hippocampal slices; assay type: cell-based; conditions: hippocampal slices; 6 days
p35 = experiment: Immunoblot of p35/p25 in cultured rat hippocampal slices; assay type: cell-based; conditions: hippocampal slices
Method: Hippocampal slices were collected, homogenized, and subjected to SDS-PAGE electrophoresis. Immunoblots were then probed with anti-p35 sera that were raised against the C-terminal domain of p35.
as §1

cathepsin D = conditions: literature report; cited from earlier work
TGF-beta = experiment: RT-PCR/northern blot of cytokine mRNA in cultured hippocampal slices; assay type: cell-based; conditions: ZPAD 20 μM, mevastatin 20 μM
reactive microglia = experiment: ED-1 immunocytochemistry of cultured brain explants; assay type: cell-based, rat; conditions: ZPAD 20 μM, mevastatin 20 μM or PD98059 50 μM alone, 6 days
Method: Immunocytochemical studies using the monoclonal antibody ED-1 that recognizes reactive microglia were used at 1:1000 dilution following standard immunohistochemical procedures. Microglial activation was determined by measuring cell numbers, optical density, and size of cell bodies using the program NIH Image. Brain tissue was cultured for 12 days and treated with ZPAD (20 μM) in the presence or absence of PD98059 (50 μM) for 6 days (FIG. 18). Cultured explants were then sliced and stained by using monoclonal antibody ED-1 which recognizes reactive microglia, a classical marker of inflammation. […] Cultured brain explants were then sliced and stained by using monoclonal antibody ED-1, a classical marker for reactive microglia and macrophages.

tau protein = conditions: literature report; cited from earlier work
tangle-like structures = experiment: AT8 immunostaining of cultured rat hippocampal slices; assay type: cell-based; conditions: rat hippocampal slices; agent applied for 6 days
Method: Cultured slices were stained with anti-phosphorylated tau antibody AT8.
as §1
Cultured rat hippocampal slices of 12 days in vitro were treated with 20 μM pravastatin for 6 days and processed from immunohistological studies with the monoclonal antibody AT8. The subiculum, CA1 field, and CA3 field of the hippocampus were examined by photomicroscopy.

IL-10 = experiment: RT-PCR/northern blot of cytokine mRNA in cultured hippocampal slices; assay type: cell-based; conditions: ZPAD 20 μM, mevastatin 20 μM
basophilic granules = experiment: Semithin section histology (toluidine blue) of cultured mouse hippocampal slices; assay type: cell-based; conditions: 20 μM ZPAD, six days; wild-type and apoE-deficient slices
Method: To prepare semithin sections, control and treated slices from both wild-type and apoE-deficient mice were fixed in a solution of 0.1M phosphate buffer (“PB”; pH 7.2), containing 1.5% paraformaldehyde and 1.5% glutaraldehyde. After a period of two to three hours, the solution was removed and the slices were rinsed three times in phosphate buffered saline (“PBS”; 50 mM phosphate buffer, 0.9% NaCl, pH 7.3). At this time, slices were postfixed in 2% osmium tetroxide in PB for one hour, dehydrated in a series of alcohols and embedded in Polybed-812. Semithin (1 μm thick) sections were cut on a Sorvall Porter-Blum ultramicrotome and stained with a solution of 0.1% toluidine blue. Digitized images were imported using a Sony DKC-5000 camera attached to a Zeiss microscope and processed using Adobe Photoshop™.

tau proteins = experiment: Immunoblot with tau-1 antibody in cultured mouse hippocampal slices; assay type: cell-based; conditions: six days of ZPAD; for reduction in native tau proteins (50-55 kDa): mean±s.e.m., n=6
Method: Hippocampal slices were prepared from 10 to 13 day old C57BL/6J (wild-type) and C57BL/6J-ApoE^tm1Unc (ApoE-knockout) mice obtained from the Jackson laboratory, Bar Harbor, Me. Pups were placed under light bromo-chloro-trifluoroethane anesthesia (Sigma, St. Louis, Mo.), and killed by decapitation. After removing the brains, the hippocampus was dissected and subsequently placed on a McIlwain tissue chopper where slices (400 μm thick) were obtained and placed in a solution of cutting medium consisting of Minimum Essential Medium (MEM) with Earle's salts (Gibco, Grand Island, N.Y.), 25 mM HEPES buffer, 10 mM Tris base, 10 mM glucose, and 3 mM MgCl2, pH 7.20. Hippocampal slices were then placed onto the membranes of Millicell-CM culture inserts (Millipore Corp., Bedford, Mass.) in 6 well culture cluster plates and 1 ml of media per well using the methods described by Stoppini et al., J. Neurosci. Methods 37(2):173-82 (1991). The culture medium was described previously by Bednarski et al., J. Neurosci. 17(11):4006-21 (1997). The cultures were incubated in a 37° C. atmosphere containing 5% CO2 and the culture medium was replaced every other day until the initiation of experiments. Each culture cluster plate contained hippocampal slices from either two wild-type or two apoE-knockout mice and individual wells were used for matched control and experimental treatment groups.
After maintaining the slices with normal culture medium (Bednarski et al., J. Neurosci. 17(11):4006-21 (1997)) in vitro for 12-14 days, slices were incubated with culture medium containing either 20 μM N-CBZ-L-phenylalanyl-L-alanine-diazomethyl-ketone (ZPAD; BACHEM Bioscience, Inc., Torrance, Calif.), an inhibitor of cathepsins B and L (Shaw & Dean, Biochem. J. 186:385-390 (1980); Green & Shaw, J Biol Chem. 256:1923-1928 (1981); Richardson et al., J. Cell Biol. 107: 2097-2107 (1988)) or vehicle (dimethylsulfoxide; DMSO, 0.01%-0.04%) for six days. This treatment media was exchanged every other day.
Control and ZPAD-treated slices were collected in ice-cold 10 mM Tris-HCl harvest buffer consisting of 0.32 M sucrose, 2 mM EDTA, 2 mM EGTA, and 0.1 mM leupeptin, pH 7.4, and centrifuged at 12,000×g for 5 minutes at 4° C. At this point, the pellets were resuspended in lysis buffer (8 mM HEPES, 1 mM EDTA, 0.3 mM EGTA, pH 8.0) and sonicated. The Bradford analysis was performed (Bradford, M, Anal. Biochem 72:248-254 (1976)) and 100-120 μg of protein from each sample was denatured by boiling for 5 min with 2.5% (wt/vol) sodium dodecyl sulfate (SDS) and 3% 2-mercaptoethanol and then subjected to SDS-PAGE on 10% linear gradient gels. See Laemmli et al., J. Mol. Biol. 47:69-85 (1970). […] Relative optical densities and areas of immunobands were quantified using the NIH image analysis system.

caspase 3 = experiment: ELISA assay of caspase 3 activity in cultured hippocampal slices; assay type: cell-based; conditions: slices cultured 12 days, treated 6 days
Method: Hippocampal slices were cultured for 12 days and incubated with vehicle alone, ZPAD, or chloroquine (CQN; a lysosomal inhibitor) for 6 days (FIG. 28). Cultures were then homogenized, and subjected to an ELISA assay to detect the activity of caspase 3, an apoptotic protease.

activity of caspase 3 (caspase 3): marked increase
Substance: N-CBZ-L-phenylalanyl-L-alanine-diazomethyl-ketone [ZPAD]
native tau proteins (tau-1 blot) (tau): decreases in the native tau proteins; also recorded: induced a truncation of native tau proteins
tau fragments (tau-1 blot) (tau): increases in fragments at apparent molecular weights of 40, 33, and 29 kDa; also recorded: generation of tau fragments
activated MAPK (ERK1/2) (MAPK (ERK1/2)): activated; also recorded: activation
levels of p35 (p35; 6 days): significant decrease
truncated form p25 (p35; six day treatment): paralleled increase
enzymatically active cathepsin D (cathepsin D): increases in enzymatically active cathepsin D
mRNA levels of TGF-beta (TGF-beta): increases
reaction of microglia (ED-1 staining) (reactive microglia): triggered significant reaction of microglia
29 kDa tau fragment (tau 29) (tau protein): production of a 29-kDa tau fragment; also recorded: delayed appearance of a 29 kDa fragment
high molecular weight isoforms of tau protein (tau protein): degradation of high molecular weight isoforms of tau protein
induction of AT8-immunoreactive tangle-like structures (tangle-like structures): only a small number; also recorded: moderately increased; also recorded: induced numerous tangles
mRNA levels of IL-10 (IL-10): increases
number of basophilic granules (lysosomes) (basophilic granules): increase in the number of basophilic granules
increase in levels of the 15-35 kDa tau fragments (tau proteins; apoE-knockout mouse slices): 277±20%
reduction in native tau proteins (50-55 kDa) (tau proteins; apoE-knockout mouse slices): 35±1.1%
increase in levels of the 15-35 kDa tau fragments (tau proteins; wild-type mouse slices): 240±19%
reduction in native tau proteins (50-55 kDa) (tau proteins; wild-type mouse slices): 22±2.6%
